From the supplement of paper PMC11061612

Tests used:
[1] = system: C-33-A (Cervical Carcinoma); experiment: Bliss excess, mean over the matrix (fraction); higher = more synergy
Summary of the method: (§1)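 Bliss excess equals the observed combination effect minus the expected value EA + EB − EA·EB, where EA and EB are the effects of each agent alone. Combination Emax is the second-highest inhibition within the matrix. Inhibition was scaled from CellTiter-Glo 2.0 luminescence, with 0 set by vehicle wells and 1 by blank wells, after 72 hours of two-drug dosing of cells plated in 1536-well plates.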

[2] = system: COR-L88 (Small Cell Lung Carcinoma); experiment: as above
Summary of the method: as §1

[3] = system: HPAF-II (Pancreatic Carcinoma); experiment: as above
Summary of the method: as §1

[4] = system: KP-4 (Pancreatic Carcinoma); experiment: as above
Summary of the method: as §1

[5] = system: LCLC-103H (Non-Small Cell Lung Carcinoma); experiment: as above
Summary of the method: as §1

[6] = system: MDA-MB-415 (Breast Carcinoma); experiment: as above
Summary of the method: as §1

[7] = system: MONO-MAC-6 (Acute Myeloid Leukemia); experiment: as above
Summary of the method: as §1

[8] = system: NAMALWA (Burkitt's Lymphoma); experiment: as above
Summary of the method: as §1

[9] = system: NCI-H226 (Mesothelioma); experiment: as above
Summary of the method: as §1

[10] = system: SCC-4 (Oral Cavity Carcinoma); experiment: as above
Summary of the method: as §1

[11] = system: SK-CO-1 (Colorectal Carcinoma); experiment: as above
Summary of the method: as §1

[12] = system: SK-N-SH (Neuroblastoma); experiment: as above
Summary of the method: as §1

[13] = system: ZR-75-30 (Breast Carcinoma); experiment: as above
Summary of the method: as §1

[14] = system: KP-4 (Pancreatic Carcinoma); experiment: combination Emax (second highest fraction inhibited in the dose matrix, 72 h); higher = more inhibition; extreme values may be limits of the assay
Summary of the method: as §1

Row | SMILES | Bliss excess [1] | Bliss excess [2] | Bliss excess [3] | Bliss excess [4] | Bliss excess [5] | Bliss excess [6] | Bliss excess [7] | Bliss excess [8] | Bliss excess [9] | Bliss excess [10] | Bliss excess [11] | Bliss excess [12] | Bliss excess [13] | combination Emax [14]
1 | C=CCn1c(=O)c2cnc(Nc3ccc(N4CCN(C)CC4)cc3)nc2n1-c1cccc(C(C)(C)O)n1 [AZD1775] + CCc1c2c(nc3ccc(O)cc13)-c1cc3c(c(=O)n1C2)COC(=O)[C@]3(O)CC [SN-38] (first compound max 1 µM, partner max 0.3 µM) | 0.0561 | -0.0248 | -0.0218 | 0.0054 | 0.0015 | -0.009 | -0.0158 | -0.0172 | -0.0755 | -0.0732 | -0.0355 | -0.019 | -0.0938 | –
2 | C=CCn1c(=O)c2cnc(Nc3ccc(N4CCN(C)CC4)cc3)nc2n1-c1cccc(C(C)(C)O)n1 [AZD1775] + Nc1ccn([C@@H]2O[C@H](CO)[C@@H](O)C2(F)F)c(=O)n1 [Gemcitabine] (first compound max 1 µM, partner max 0.3 µM) | 0.0713 | 0.0144 | 0.0046 | – | 0.0858 | 0.0228 | 0.0322 | 0.0247 | 0.0067 | -0.0574 | -0.0262 | -0.0051 | -0.0561 | –
3 | CN(CCO)CC[C@H](CSc1ccccc1)Nc1ccc(S(=O)(=O)NC(=O)c2ccc(N3CCC([C@@H](O)c4ccccc4-c4ccc(Cl)cc4)CC3)cc2)cc1S(=O)(=O)C(F)(F)F [AZD4320] + CC(=O)O[C@H]1C(=O)[C@@]2(C)[C@H]([C@H](OC(=O)c3ccccc3)[C@]3(O)C[C@H](OC(=O)[C@H](O)[C@@H](NC(=O)c4ccccc4)c4ccccc4)C(C)=C1C3(C)C)[C@]1(OC(C)=O)CO[C@@H]1C[C@@H]2O [Paclitaxel] (first compound max 1 µM, 7x7, partner max 3 µM) | 0.0811 | 0.25 | 0.0952 | -0.0097 | 0.0719 | -0.0059 | 0.0285 | -0.01 | 0.131 | 0.0946 | -0.0002 | -0.0254 | 0.0901 | –
4 | CN(CCO)CC[C@H](CSc1ccccc1)Nc1ccc(S(=O)(=O)NC(=O)c2ccc(N3CCC([C@@H](O)c4ccccc4-c4ccc(Cl)cc4)CC3)cc2)cc1S(=O)(=O)C(F)(F)F [AZD4320] + CS(=O)(=O)CCNCc1ccc(-c2ccc3ncnc(Nc4ccc(OCc5cccc(F)c5)c(Cl)c4)c3c2)o1 [Lapatinib] (first compound max 1 µM, 7x7, partner max 10 µM) | 0.0074 | 0.0911 | 0.031 | -0.0251 | -0.0224 | 0.0355 | 0.103 | -0.015 | -0.0437 | 0.0692 | 0.0785 | 0.112 | 0.0458 | 0.186
5 | CN(CCO)CC[C@H](CSc1ccccc1)Nc1ccc(S(=O)(=O)NC(=O)c2ccc(N3CCC([C@@H](O)c4ccccc4-c4ccc(Cl)cc4)CC3)cc2)cc1S(=O)(=O)C(F)(F)F [AZD4320] + Nc1ccn([C@@H]2O[C@H](CO)[C@@H](O)C2(F)F)c(=O)n1 [Gemcitabine] (first compound max 1 µM, 7x7, partner max 0.3 µM) | 0.0113 | 0.0283 | -0.0087 | – | -0.0122 | 0.0347 | -0.0237 | – | -0.0209 | 0.0027 | -0.0065 | 0.0106 | -0.0052 | –
6 | Cc1c2c(nn1C)CSCc1cc(n(C)n1)CSc1cc(c3ccccc3c1)OCCCc1c(C(=O)O)n(C)c3c-2c(Cl)ccc13 [AZD5991] + CC(=O)O[C@H]1C(=O)[C@@]2(C)[C@H]([C@H](OC(=O)c3ccccc3)[C@]3(O)C[C@H](OC(=O)[C@H](O)[C@@H](NC(=O)c4ccccc4)c4ccccc4)C(C)=C1C3(C)C)[C@]1(OC(C)=O)CO[C@@H]1C[C@@H]2O [Paclitaxel] (first compound max 1 µM, 7x7, partner max 3 µM) | -0.0095 | 0.0486 | 0.0356 | -0.0288 | -0.0118 | 0.0268 | 0.0152 | 0.0041 | -0.008 | -0.0628 | -0.052 | -0.0507 | 0.0617 | 0.965
7 | Cc1c2c(nn1C)CSCc1cc(n(C)n1)CSc1cc(c3ccccc3c1)OCCCc1c(C(=O)O)n(C)c3c-2c(Cl)ccc13 [AZD5991] + CS(=O)(=O)CCNCc1ccc(-c2ccc3ncnc(Nc4ccc(OCc5cccc(F)c5)c(Cl)c4)c3c2)o1 [Lapatinib] (first compound max 1 µM, 7x7, partner max 10 µM) | 0.0485 | -0.0283 | -0.0209 | -0.0211 | -0.025 | 0.0015 | 0.0012 | -0.0204 | -0.0183 | 0.0449 | 0.0034 | 0.0615 | 0.063 | 0.15
8 | Cc1c2c(nn1C)CSCc1cc(n(C)n1)CSc1cc(c3ccccc3c1)OCCCc1c(C(=O)O)n(C)c3c-2c(Cl)ccc13 [AZD5991] + Nc1ccn([C@@H]2O[C@H](CO)[C@@H](O)C2(F)F)c(=O)n1 [Gemcitabine] (first compound max 1 µM, 7x7, partner max 0.3 µM) | 0.0332 | 0.0854 | -0.0059 | – | -0.0722 | -0.0407 | -0.0133 | -0.0379 | -0.024 | -0.0333 | -0.0284 | -0.0198 | 0.0283 | –
9 | C[C@@H]1COCCN1c1cc(C2([S@](C)(=N)=O)CC2)nc(-c2ccnc3[nH]ccc23)n1 [AZD6738] + C1CC(C1)(C(=O)[O-])C(=O)[O-].N.N.[Pt+2] [Carboplatin] (first compound max 10 µM, 7x7, partner max 10 µM) | -0.0043 | -0.0207 | -0.0585 | -0.0351 | -0.0447 | 0.0134 | -0.0075 | -0.0293 | -0.0383 | 0 | 0.0009 | -0.028 | -0.0119 | 0.471
10 | C[C@@H]1COCCN1c1cc(C2([S@](C)(=N)=O)CC2)nc(-c2ccnc3[nH]ccc23)n1 [AZD6738] + Nc1ccn([C@@H]2O[C@H](CO)[C@@H](O)C2(F)F)c(=O)n1 [Gemcitabine] (first compound max 10 µM, 7x7, partner max 0.3 µM) | 0.032 | 0.105 | – | – | 0.0863 | 0.065 | 0.0427 | 0.0357 | 0.041 | 0.0044 | 0.0365 | 0.0248 | 0.0117 | –
11 | Cc1cc2ncnn2cc1Nc1ncc2c(n1)n(C1CCOCC1)c(=O)n2C [AZD7648] + COc1cc([C@@H]2c3cc4c(cc3[C@@H](O[C@@H]3O[C@@H]5CO[C@@H](C)O[C@H]5[C@H](O)[C@H]3O)[C@H]3COC(=O)[C@H]23)OCO4)cc(OC)c1O [Etoposide] (first compound max 10 µM, 7x7, partner max 10 µM) | 0.0997 | -0.0241 | 0.0098 | 0.122 | 0.0526 | 0.0025 | 0.159 | 0.0745 | 0.0215 | 0.0043 | 0.0429 | 0.0634 | -0.0044 | 0.878
12 | C[C@@H](Nc1cc(F)cc(F)c1)c1cc(C(=O)N(C)C)cc2c(=O)cc(N3CCOCC3)oc12 [AZD8186] + C1CN(CCC1(C(=O)N[C@@H](CCO)C2=CC=C(C=C2)Cl)N)C3=NC=NC4=C3C=CN4 [AZD5363] (first compound max 10 µM, 7x7, partner max 10 µM) | -0.0501 | -0.0269 | 0.0403 | -0.0583 | -0.0345 | -0.0251 | 0.0692 | 0.0078 | -0.0272 | -0.0276 | 0.0309 | -0.0269 | -0.0104 | 0.249
13 | N#Cc1cnc(Nc2cc(NC[C@H]3CNCCO3)c(C(F)(F)F)cn2)cn1 [SRA737] + CCc1c2c(nc3ccc(O)cc13)-c1cc3c(c(=O)n1C2)COC(=O)[C@]3(O)CC [SN-38] (first compound max 10 µM, 7x7, partner max 0.3 µM) | 0.0384 | -0.0179 | -0.0004 | -0.031 | 0.0442 | 0.0404 | -0.0374 | -0.0123 | -0.0592 | 0.007 | -0.0667 | -0.0471 | -0.0375 | –
14 | N#Cc1cnc(Nc2cc(NC[C@H]3CNCCO3)c(C(F)(F)F)cn2)cn1 [SRA737] + Nc1ccn([C@@H]2O[C@H](CO)[C@@H](O)C2(F)F)c(=O)n1 [Gemcitabine] (first compound max 10 µM, 7x7, partner max 0.3 µM) | 0.0954 | -0.0293 | 0.0843 | – | 0.117 | 0.115 | 0.0489 | 0.0256 | 0.0349 | – | 0.0698 | -0.0168 | -0.0408 | –
